Patent US20180064821A1, “SITE SPECIFIC CURCUMIN-POLYMER MOLECULAR COMPLEXES AND METHODS OF TREATING COLON DISEASES AND INFLAMMATION” (priority 2016, published 2018)
Like-named read-outs stand apart in the source and are kept apart here.

Experiments:
[1] = system: HT29 colo-rectal cancer cells; test: pH dependent cellular uptake by flow cytometry, HT29; type: cell-based, human
Description: (§1) Briefly, 2×10^5 cells were seeded in 24 well-plates and allowed to adhere for 24 h. […] After 4 h, the cells were washed with PBS, trypsinized, fixed using 4% paraformaldehyde (PFA) and stored at 4° C. until further analysis using flow cytometer. […] Sample acquisition was performed using BD Biosciences FACS LSR Fortessa and data analyzed using FlowJo software (FlowJo LLC).

[2] = system: HT29 human colo-rectal cancer cells; test: MTT cell viability assay, HT29; type: cell-based; details: 48 h incubation
Description: (§2) Following 48 h of incubation, 0.5 mg/ml MTT solution was added to each well, and the cells were incubated for further 4 h at 37° C. After 4 h, 150 μl of DMSO was added to each well and incubated for 1 h at 37° C. to dissolve the formazan crystals. The absorbance was then measured at 570 nm with a reference wavelength of 650 nm using UV-visible spectrophotometer. The results are represented in terms of percentage inhibition of cell proliferation compared to that of vehicle control. The cellular viability was assessed as a percentage of the control by using the following equation.

[3] = system: HCT116 colo-rectal cancer cells; test: pH dependent cellular uptake by flow cytometry, HCT116; type: cell-based, human
Description: as §1

[4] = Aqueous stability of curcumin complexes; type: physicochemical; details: 37° C.
Description: At different time intervals (0, 1, 2, 4, 6, 8, 12, 16, 20, 24 h), the samples were collected, centrifuged (20,000 g) and the supernatant was passed through […] filter.

[5] = system: HCT116 human colo-rectal cancer cells; test: MTT cell viability assay, HCT116; type: cell-based; details: 48 h incubation
Description: as §2

IC50 ([2]; listed as Unformulated curcumin at pH 7.0, read-out: IC50 (mean ± SD) In HT29 Cells): > 80 µM
IC50 ([2]; Homo sapiens, HT-29, 48 h, read-out: IC50 (mean ± SD) In HT29 Cells): 41.8 ± 1.86 µM
initial curcumin present ([4]; SIF (pH 6.7-6.9) and pH 7.0 buffer with 10% methanol, 24 h): ~10%
initial curcumin present ([4]; aqueous buffers with 10% methanol, within 2 h): ~30%
IC50 ([5]; listed as Unformulated curcumin at pH 7.0, read-out: IC50 (mean ± SD) In HCT116 Cells): > 80 µM
IC50 ([5]; listed as curcumin in DMSO, read-out: IC50 (mean ± SD) In HCT116 Cells): 18.4 ± 1.94 µM
SMILES: COc1cc(/C=C/C(=O)CC(=O)/C=C/c2ccc(O)c(OC)c2)ccc1O [Curcumin, (1E,6E)-1,7-bis(4-hydroxy-3-methoxyphenyl)-1,6-heptadiene-3,5-dione]
Cellular uptake of curcumin, Mean fluorescence intensity ([1]; pH 5.5, 4 h): 2704 ± 221
Cellular uptake of curcumin, Mean fluorescence intensity ([1]; pH 7.0, 4 h): 2429 ± 247
Cellular uptake of curcumin, Mean fluorescence intensity ([3]; pH 5.5, 4 h): 2543 ± 72
Cellular uptake of curcumin, Mean fluorescence intensity ([3]; pH 7.0, 4 h): 3514 ± 975
